Assay results from patent KR20080021588A, “메카노 성장 인자 펩티드 및 이들의 용도” (유씨엘 비즈니스 피엘씨, priority 2005, dated 2006).
Where no end group is shown, it is not given here.

Assays:
단핵성 근육모세포 (수반 세포) = experiment: Biological activity: induction of mononucleated myoblast replication (Alamar Blue); type: cell-based; parameters: key to biological activity score (scale 0 to 3): 0: 6시간에서 측정가능한 세포 수 증가 없음; 1: 4시간에서 유의한 세포 수 증가; 2시간에서 유의한 세포 수 증가; 3: 1시간에서 유의한 세포 수 증가; conditions: cell number by Alamar Blue
래트 기관형적 해마 배양물 = experiment: In vitro neuroprotection against TBH oxidative stress in organotypic hippocampal slices (PI staining); type: cell-based, Wistar rat; conditions: 100 ng/ml
정상 두개안면 (교근) 초대 배양물 = experiment: Myogenic progenitor (desmin-positive) cell proliferation, normal craniofacial muscle primary culture; type: cell-based, human; conditions: normal craniofacial (masseter); peptide 10 ng/ml alone; untreated 49.8±2.4%
초대 인간 근육 세포 배양물 = experiment: Creatine phosphokinase (CPK) assay of myogenic differentiation / myotube formation; type: cell-based, human; conditions: peptide alone in differentiation medium, 48 h; IGF-I at 10 ng/ml
FSHD 사지 = experiment: Myogenic progenitor (desmin-positive) cell proliferation, FSHD muscle primary culture; type: cell-based, human; conditions: peptide 10 ng/ml alone, untreated 11.7±1.3%
[1] = system: 선천성 근이영양증 (CMD)에서 유래된 초대 배양물; experiment: Myogenic progenitor (desmin-positive) cell proliferation, CMD muscle primary culture; type: cell-based, human; conditions: peptide 10 ng/ml alone, untreated 10.4±1.7%
mdx 마우스의 근이영양성 근육 = experiment: Tetanic force of dystrophic muscle after intramuscular injection in mdx mice; type: in vivo, mouse; conditions: i.m. twice weekly for 3 weeks
HSMM 세포 = experiment: Human primary cell (HSMM) proliferation assay (BrdU incorporation); type: cell-based; conditions: 48 h; A5 at doses up to 10 ng/ml (P < 0.1); IGF-I alone at any dose
C2C12 근육 세포 [2] = experiment: C2C12 cell proliferation assay (Alamar Blue); type: cell-based, mouse; conditions: 2, 5, 50 and 100 ng/ml; 2000 cells/well; medium with IGF-I 2 ng/ml; 36 h; vs medium-only control
경색된 양 심장 = experiment: Cardioprotection after myocardial infarction in sheep (ejection fraction by echocardiography); type: in vivo; conditions: intracoronary injection 15 min after infarction, day 6 vs day before procedure
정상 하지 (사두근) 초대 배양물 = experiment: Myogenic progenitor (desmin-positive) cell proliferation, normal limb muscle primary culture; type: cell-based, human; conditions: normal limb (quadriceps); peptide 10 ng/ml alone; untreated 38.4±2.5%
ALS 사지 = experiment: Myogenic progenitor (desmin-positive) cell proliferation, ALS muscle primary culture; type: cell-based, human; conditions: peptide 10 ng/ml alone, untreated 4.8±1.1%
뇌 허혈의 게르빌루스쥐 모델 = experiment: Neuroprotection in gerbil model of brain ischaemia (surviving CA1 neurons); type: in vivo, Mongolian gerbil; conditions: 25 µg injection, 7 days after ischaemic insult
C2C12 근육 세포 [3] = experiment: C2C12 cell proliferation assay (BrdU incorporation); type: cell-based, mouse; conditions: 0.1, 1, 10 and 100 ng/ml; 500 cells/well; 24 h stimulation, 5 h BrdU

Substance: YQPPSTNKNTKSQARKGSTF [짧은 펩티드 2, Arg14→Ala, four C-terminal amino acids removed]
- biological activity score (scale 0 to 3) (단핵성 근육모세포 (수반 세포)): 0

Substance: TNKNTKSQARKGSTFEEHK [짧은 펩티드 4, Arg14→Ala, five N-terminal amino acids removed]
- biological activity score (scale 0 to 3) (단핵성 근육모세포 (수반 세포)): 0

Substance: IGF-I: IGF-I receptor binding domain encoded by exons 3 and 4, about 70 amino acids; from PeproTech or Sigma-Aldrich
- protection against TBH-induced cell death (래트 기관형적 해마 배양물; TBH 3 h, CA1 region, 24 h): 72 %
- time over which the neuroprotective effect was marked (래트 기관형적 해마 배양물; cell death assessed 24 h and 48 h after start): ≤ 24 시간
- desmin-positive cells as % of total (DAPI-positive) cells (정상 두개안면 (교근) 초대 배양물): 58.4±4.2 %
- effect on primary myoblast differentiation and myotube formation (CPK) (초대 인간 근육 세포 배양물): 근관 형성을 명백하게 자극한다
- desmin-positive cells as % of total (DAPI-positive) cells (FSHD 사지): 14.1±1.6 %
- desmin-positive cells as % of total (DAPI-positive) cells [1]: 13.2±1.7 %
- increase in tetanic force of dystrophic muscle (mdx 마우스의 근이영양성 근육): ~5 %
- effect on HSMM proliferation (BrdU incorporation), used alone (HSMM 세포): 유의한 효과가 없었다
- induction of C2C12 cell proliferation (Alamar Blue fluorescence) (C2C12 근육 세포 [2]): 통계학적으로 상이하였다
- effect on ejection fraction and percentage of viable myocardium after MI (경색된 양 심장): 더욱 작은 효과
- desmin-positive cells as % of total (DAPI-positive) cells (정상 하지 (사두근) 초대 배양물): 47.1±3.5 %
- desmin-positive cells as % of total (DAPI-positive) cells (ALS 사지): 4.7±1.4 %
- surviving CA1 neurons as % of control neuron number, side not stated (뇌 허혈의 게르빌루스쥐 모델): 15.8 %
- surviving CA1 neurons, side not stated (뇌 허혈의 게르빌루스쥐 모델; n=5): 19.2 ± 7.3 개

Substance: YQPPSTNKNTKAQRRKGSTFEEHK [펩티드 3]
- biological activity score (scale 0 to 3) (단핵성 근육모세포 (수반 세포)): 3

Substance: YQPPSTNKNTKSQAAKGSTFEEHK [펩티드 6]
- biological activity score (scale 0 to 3) (단핵성 근육모세포 (수반 세포)): 0

Substance: YQPPSTNKNTKSQARKGSTFEE [짧은 펩티드 1, Arg14→Ala, two C-terminal amino acids removed]
- biological activity score (scale 0 to 3) (단핵성 근육모세포 (수반 세포)): 1

Substance: GSTFEERK [펩티드 A2]
- induction of C2C12 cell proliferation (BrdU incorporation) (C2C12 근육 세포 [3]): 세포 증식을 유도하였다

Substance: YQPPATNKNTKSQRRKGSTFEEHK [펩티드 2]
- biological activity score (scale 0 to 3) (단핵성 근육모세포 (수반 세포)): 1

Substance: YQPPSTNKNTKSQRRKGATFEEHK [펩티드 4]
- biological activity score (scale 0 to 3) (단핵성 근육모세포 (수반 세포)): 2

Substance: YQPPSTNKNTKSQARKGSTFEEHK [펩티드 5]
- biological activity score (scale 0 to 3) (단핵성 근육모세포 (수반 세포)): 2

Substance: PSTNKNTKSQARKGSTFEEHK [짧은 펩티드 3, Arg14→Ala, three N-terminal amino acids removed]
- biological activity score (scale 0 to 3) (단핵성 근육모세포 (수반 세포)): 0

Substance: GSTFEEHK [펩티드 A8]
- induction of C2C12 cell proliferation (BrdU incorporation) (C2C12 근육 세포 [3]): 세포 증식을 유도하였다

Substance: YQPPSTNKNTKSQRRKGSTFEEHK [펩티드 1, human Ec peptide variant with His instead of Arg at penultimate position; no PEG, no L-D conversion]
- biological activity (in words) (단핵성 근육모세포 (수반 세포)): 활성을 거의 또는 전혀 나타내지 않았다

Substance: GSTFEEHK [DMGF]
- induction of C2C12 cell proliferation (Alamar Blue fluorescence) (C2C12 근육 세포 [2]): 세포 증식을 유도하였다
